Test results: patent US6916812B2, “Alpha-aminoamide derivatives as melanocortin agonists” (Bristol-Myers Squibb Company, priority 2001, dated 2005)

Target: T1, cloned human MC4R (Homo sapiens, UniProt P32245)
T1 construct: made in house; host or cells: Hi5 insect cells (baculovirus infection); membrane preparation
Test: Membrane binding assay: competitive inhibition of [125I]NDP-α-MSH binding
Conditions: for IC50: read-out: MC4R IC50

[1] = at 10 μM, [125I]NDP-α-MSH displacement

T1 sequence (P32245 whole entry): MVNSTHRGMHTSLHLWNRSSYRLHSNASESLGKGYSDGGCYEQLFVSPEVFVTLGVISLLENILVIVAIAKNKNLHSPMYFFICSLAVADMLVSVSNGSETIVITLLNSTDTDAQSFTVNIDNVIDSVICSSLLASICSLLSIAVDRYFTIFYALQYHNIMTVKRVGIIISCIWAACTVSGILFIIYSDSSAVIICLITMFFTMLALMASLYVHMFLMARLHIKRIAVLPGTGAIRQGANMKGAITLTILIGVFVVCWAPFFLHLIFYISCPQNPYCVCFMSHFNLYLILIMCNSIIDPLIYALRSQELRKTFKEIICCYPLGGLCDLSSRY

Displacement Rate (%) (at 10 μM) [1] | IC50 [nM] | inhibition at 10 µM (at 10 μM, [125I]NDP-α-MSH displacement, read-out: Displacement Rate (%) (at 10 μM)) | Structure (SMILES)
+++ (+++ = 91-100) | < 1500 |  | Cc1cccc(COc2ccc(C[C@H](N)C(=O)N3CCN(Cc4cccc(Cl)c4Cl)CC3)cc2)c1 [Example 213]
+++ (+++ = 91-100) | 1500 to 3000 |  | N[C@@H](Cc1ccc(OCc2cccc3ccccc23)cc1)C(=O)N1CCN(Cc2cccc(Cl)c2Cl)CC1 [Example 218]
+++ (+++ = 91-100) | 1500 to 3000 |  | N[C@@H](Cc1ccc(OCc2ccc([N+](=O)[O-])cc2)cc1)C(=O)N1CCN(Cc2cccc(Cl)c2Cl)CC1 [Example 223]
++ (++ = 71-90) | > 3000 |  | COc1ccc(COc2ccc(C[C@H](N)C(=O)N3CCN(Cc4cccc(Cl)c4Cl)CC3)cc2)cc1 [Example 225]
++ (++ = 71-90) | > 3000 |  | COc1ccc(COc2ccc(C[C@H](N)C(=O)N3CCN(Cc4cccc(Cl)c4Cl)CC3)cc2)c(OC)c1 [Example 228]
++ (++ = 71-90) | > 3000 |  | N[C@@H](Cc1ccc(OCc2cc3c(cc2[N+](=O)[O-])OCO3)cc1)C(=O)N1CCN(Cc2cccc(Cl)c2Cl)CC1 [Example 229]
++ (++ = 71-90) | > 3000 |  | N[C@@H](Cc1ccc(OCc2c3ccccc3cc3ccccc23)cc1)C(=O)N1CCN(Cc2cccc(Cl)c2Cl)CC1 [Example 232]
+ (+ = 35-70) | > 3000 |  | COc1cccc(COc2ccc(C[C@H](N)C(=O)N3CCN(Cc4cccc(Cl)c4Cl)CC3)cc2)c1OC [Example 233]
+++ (+++ = 91-100) | < 1500 |  | N[C@@H](Cc1ccc(OCCc2ccccc2)cc1)C(=O)N1CCN(Cc2cccc(Cl)c2Cl)CC1 [Example 238]
+++ (+++ = 91-100) | < 1500 |  | N[C@@H](Cc1ccc(OCCc2ccccc2Cl)cc1)C(=O)N1CCN(Cc2cccc(Cl)c2Cl)CC1 [Example 242]
 | < 1500 | 91 to 100 | COc1cccc(CCOc2ccc(C[C@H](N)C(=O)N3CCN(Cc4cccc(Cl)c4Cl)CC3)cc2)c1 [Example 243]
+++ (+++ = 91-100) | < 1500 |  | N[C@@H](Cc1ccc(OCCc2ccc(Cl)cc2Cl)cc1)C(=O)N1CCN(Cc2cccc(Cl)c2Cl)CC1 [Example 246]
+++ (+++ = 91-100) | < 1500 |  | N[C@@H](Cc1ccc(OCCc2cccc(Cl)c2)cc1)C(=O)N1CCN(Cc2cccc(Cl)c2Cl)CC1 [Example 249]
+++ (+++ = 91-100) | 1500 to 3000 |  | N[C@@H](Cc1ccc(OCCc2cccc([N+](=O)[O-])c2)cc1)C(=O)N1CCN(Cc2cccc(Cl)c2Cl)CC1 [Example 257]
+++ (+++ = 91-100) | < 1500 |  | N[C@@H](Cc1ccc(OCCCc2ccc(OCc3ccccc3)cc2)cc1)C(=O)N1CCN(Cc2cccc(Cl)c2Cl)CC1 [Example 260]
+++ (+++ = 91-100) | < 1500 |  | CC(CCOc1ccc(C[C@H](N)C(=O)N2CCN(Cc3cccc(Cl)c3Cl)CC2)cc1)c1ccccc1 (some centres unmarked) [Example 263]

The remaining lines, values behind:

Structure (SMILES) | Displacement Rate (%) (at 10 μM) [1] | IC50 [nM] | inhibition at 10 µM (at 10 μM, [125I]NDP-α-MSH displacement, read-out: Displacement Rate (%) (at 10 μM))
N[C@@H](Cc1ccc(OCc2ccccc2-c2ccccc2)cc1)C(=O)N1CCN(Cc2cccc(Cl)c2Cl)CC1 [Example 214] | +++ (+++ = 91-100) | < 1500 | 
N[C@@H](Cc1ccc(OCc2ccccc2Cc2ccccc2)cc1)C(=O)N1CCN(Cc2cccc(Cl)c2Cl)CC1 [Example 215] | +++ (+++ = 91-100) | < 1500 | 
Cc1ccccc1COc1ccc(C[C@H](N)C(=O)N2CCN(Cc3cccc(Cl)c3Cl)CC2)cc1 [Example 216] | +++ (+++ = 91-100) | 1500 to 3000 | 
N[C@@H](Cc1ccc(OCc2ccc3ccccc3c2)cc1)C(=O)N1CCN(Cc2cccc(Cl)c2Cl)CC1 [Example 217] | +++ (+++ = 91-100) | < 1500 | 
N[C@@H](Cc1ccc(OCc2ccc(Cl)c([N+](=O)[O-])c2)cc1)C(=O)N1CCN(Cc2cccc(Cl)c2Cl)CC1 [Example 219] | +++ (+++ = 91-100) | < 1500 | 
CCc1ccc(COc2ccc(C[C@H](N)C(=O)N3CCN(Cc4cccc(Cl)c4Cl)CC3)cc2)cc1 [Example 220] | +++ (+++ = 91-100) | < 1500 | 
CCOc1ccccc1COc1ccc(C[C@H](N)C(=O)N2CCN(Cc3cccc(Cl)c3Cl)CC2)cc1 [Example 221] | +++ (+++ = 91-100) | 1500 to 3000 | 
N[C@@H](Cc1ccc(OCc2c(F)cccc2Cl)cc1)C(=O)N1CCN(Cc2cccc(Cl)c2Cl)CC1 [Example 222] | +++ (+++ = 91-100) | 1500 to 3000 | 
CSc1ccc(COc2ccc(C[C@H](N)C(=O)N3CCN(Cc4cccc(Cl)c4Cl)CC3)cc2)cc1 [Example 224] | ++ (++ = 71-90) | 1500 to 3000 | 
N[C@@H](Cc1ccc(OCc2c(Cl)cccc2Cl)cc1)C(=O)N1CCN(Cc2cccc(Cl)c2Cl)CC1 [Example 226] | ++ (++ = 71-90) | 1500 to 3000 | 
COc1ccc(OC)c(COc2ccc(C[C@H](N)C(=O)N3CCN(Cc4cccc(Cl)c4Cl)CC3)cc2)c1 [Example 227] | ++ (++ = 71-90) | > 3000 | 
CCCCOc1ccc(COc2ccc(C[C@H](N)C(=O)N3CCN(Cc4cccc(Cl)c4Cl)CC3)cc2)cc1 [Example 230] | ++ (++ = 71-90) | 1500 to 3000 | 
COc1ccccc1COc1ccc(C[C@H](N)C(=O)N2CCN(Cc3cccc(Cl)c3Cl)CC2)cc1 [Example 231] | ++ (++ = 71-90) | > 3000 | 
COc1ccc(COc2ccc(C[C@H](N)C(=O)N3CCN(Cc4cccc(Cl)c4Cl)CC3)cc2)cc1OC [Example 234] | + (+ = 35-70) | > 3000 | 
N[C@@H](Cc1ccc(OCc2ccc3c(c2)OCO3)cc1)C(=O)N1CCN(Cc2cccc(Cl)c2Cl)CC1 [Example 235] | + (+ = 35-70) | > 3000 | 
COc1cc(COc2ccc(C[C@H](N)C(=O)N3CCN(Cc4cccc(Cl)c4Cl)CC3)cc2)cc(OC)c1OC [Example 236] | + (+ = 35-70) |  | 
Cc1ccccc1CCOc1ccc(C[C@H](N)C(=O)N2CCN(Cc3cccc(Cl)c3Cl)CC2)cc1 [Example 237] | +++ (+++ = 91-100) | < 1500 | 
Cc1ccc(CCOc2ccc(C[C@H](N)C(=O)N3CCN(Cc4cccc(Cl)c4Cl)CC3)cc2)cc1 [Example 239] | +++ (+++ = 91-100) | < 1500 | 

Structure (SMILES) | Displacement Rate (%) (at 10 μM) [1] | IC50 [nM] | inhibition at 10 µM (at 10 μM, [125I]NDP-α-MSH displacement, read-out: Displacement Rate (%) (at 10 μM))
N[C@@H](Cc1ccc(OCCc2cccc(F)c2)cc1)C(=O)N1CCN(Cc2cccc(Cl)c2Cl)CC1 [Example 240] | +++ (+++ = 91-100) | < 1500 | 
N[C@@H](Cc1ccc(OCCc2ccc(Br)cc2)cc1)C(=O)N1CCN(Cc2cccc(Cl)c2Cl)CC1 [Example 241] | +++ (+++ = 91-100) | < 1500 | 
N[C@@H](Cc1ccc(OCCc2cccc3ccccc23)cc1)C(=O)N1CCN(Cc2cccc(Cl)c2Cl)CC1 [Example 244] | +++ (+++ = 91-100) | < 1500 | 
N[C@@H](Cc1ccc(OCCc2ccc(Cl)cc2)cc1)C(=O)N1CCN(Cc2cccc(Cl)c2Cl)CC1 [Example 245] | +++ (+++ = 91-100) | < 1500 | 
N[C@@H](Cc1ccc(OCCc2ccc(F)cc2)cc1)C(=O)N1CCN(Cc2cccc(Cl)c2Cl)CC1 [Example 247] | +++ (+++ = 91-100) | < 1500 | 
N[C@@H](Cc1ccc(OCCc2cccc(Br)c2)cc1)C(=O)N1CCN(Cc2cccc(Cl)c2Cl)CC1 [Example 248] | +++ (+++ = 91-100) | < 1500 | 
N[C@@H](Cc1ccc(OCCc2cccc(OCc3ccccc3)c2)cc1)C(=O)N1CCN(Cc2cccc(Cl)c2Cl)CC1 [Example 250] | +++ (+++ = 91-100) | < 1500 | 
N[C@@H](Cc1ccc(OCCc2ccc(OCc3ccccc3)cc2)cc1)C(=O)N1CCN(Cc2cccc(Cl)c2Cl)CC1 [Example 251] | +++ (+++ = 91-100) | < 1500 | 
N[C@@H](Cc1ccc(OCCc2ccccc2OCc2ccccc2)cc1)C(=O)N1CCN(Cc2cccc(Cl)c2Cl)CC1 [Example 252] | +++ (+++ = 91-100) | < 1500 | 
N[C@@H](Cc1ccc(OCCc2ccccc2-c2ccccc2)cc1)C(=O)N1CCN(Cc2cccc(Cl)c2Cl)CC1 [Example 253] | +++ (+++ = 91-100) | < 1500 | 
COc1ccc(CCOc2ccc(C[C@H](N)C(=O)N3CCN(Cc4cccc(Cl)c4Cl)CC3)cc2)cc1 [Example 254] | +++ (+++ = 91-100) | < 1500 | 
N[C@@H](Cc1ccc(OCCc2cccc(C(F)(F)F)c2)cc1)C(=O)N1CCN(Cc2cccc(Cl)c2Cl)CC1 [Example 255] | +++ (+++ = 91-100) | < 1500 | 
N[C@@H](Cc1ccc(OCCc2ccc3ccccc3c2)cc1)C(=O)N1CCN(Cc2cccc(Cl)c2Cl)CC1 [Example 256] | +++ (+++ = 91-100) | < 1500 | 
N[C@@H](Cc1ccc(OCCc2ccc([N+](=O)[O-])cc2)cc1)C(=O)N1CCN(Cc2cccc(Cl)c2Cl)CC1 [Example 258] | ++ (++ = 71-90) | > 3000 | 
COc1ccc(CCOc2ccc(C[C@H](N)C(=O)N3CCN(Cc4cccc(Cl)c4Cl)CC3)cc2)cc1OC [Example 259] | + (+ = 35-70) | > 3000 | 
N[C@@H](Cc1ccc(OCCCc2ccccc2)cc1)C(=O)N1CCN(Cc2cccc(Cl)c2Cl)CC1 [Example 261] | +++ (+++ = 91-100) | < 1500 | 
N[C@@H](Cc1ccc(OCCCCc2ccccc2)cc1)C(=O)N1CCN(Cc2cccc(Cl)c2Cl)CC1 [Example 262] | +++ (+++ = 91-100) | < 1500 | 
